Test results taken from patent publication EP0298385A2, “Cyctostatic anthracyclin derivatives” (BEHRINGWERKE Aktiengesellschaft, priority 1987, dated 1989).
Converted amounts (≈) assume the structure as drawn. Read-outs that look alike come from different tables or passages of the source.

Tests used:
[1] = tested on: L1210 Leukämiezellen; experiment: Colony formation of L1210 leukemia cells in soft agar (cytotoxicity in vitro); format: cell-based, Maus; details: for IC50: Mus musculus
Source text: Die zytostatische Wirksamkeit der erfindungsgemäßen Verbindungen wurde anhand von L1210 Leukämiezellen der Maus getestet. Hierzu wurde die Koloniebildung von L1210 Leukämiezellen in Agarplatten herangezogen. Diese Methode dient zum Nachweis des Einflusses der Testsubstanzen auf das Wachstumsverhalten der Zellen über 1 Stunde oder über mehrere Generationen. Bei einer Zellzykluszeit von 10-12 Stunden werden dabei in der Testzeit von 7 Tagen etwa 14 aufeinanderfolgende Generationen beobachtet. Die erfindungsgemäßen zytostatisch wirksamen Substanzen bewirken in diesem Test eine Reduktion der zu beobachtenden Koloniezahl gegenüber einer unbehandelten Kontrollprobe.
Verfahrensweise zur Ermittlung der Koloniebildung von L1210 Leukämiezellen in Soft-Agar
500 Leukämiezellen pro Platte wurden mit unterschiedlichen Konzentrationen der Testsubstanz 1 Stunde bei 37°C inkubiert. Anschließend wurden die Zellen zweimal mit McCoy5A-Medium gewaschen und schließlich in Petrischalen nach Zugabe von 0,3 % Agar ausgegossen. Kontrollen wurden lediglich mit frischem Medium inkubiert. Anstelle der einstündigen Inkubation wurden in manchen Fällen unterschiedliche Konzentrationen der Testsubstanzen der oberen Agarschicht zugemischt, um so eine kontinuierliche Exposition der Zellen über die gesamte Inkubationszeit zu erreichen. Nach Erstarren des Agars wurden die Platten im Brutschrank 7 Tage bei 37°C inkubiert (5 Vol. -% CO₂, 95 % relative Luftfeuchtigkeit). Anschließend wurde die Zahl der entstandenen Kolonien mit einem Durchmesser von mehr als 60 µm gezählt. Die Ergebnisse wurden angegeben als Koloniezahl in behandelten Agarplatten in Prozent der unbehandelten Kontrolle. Aus der so erhaltenen Dosiswirkungskurve wurde die IC₅₀ als Maß für die Wirksamkeit der Substanz ermittelt. Die Ergebnisse für die hier beschriebenen Verbindungen im Vergleich zu Adriamycin sind in der nachfolgenden Tabelle 1 zusammengefaßt.
Die Struktur der hergestellten Verbindungen wurde mittels ¹H-NMR- Spektroskopie, UV-Spektroskopie und HPLC-Technik ermittelt. Der Verlauf der Reaktionen wurde, soweit möglich, dünnschichtchromatographisch auf Kieselgel-Fertigplatten verfolgt. Die Ergebnisse der Zytotoxizitäts-Testung gegen L1210-Zellen in vitro sind in Tabelle 1 zusammengefaßt. Tabelle 1

[2] = Stability / hydrolysis of the spacer-bearing anthracyclines in phosphate-buffered saline, HPLC analysis; format: physicochemical
Description: Die jeweilige Verbindung wurde bei einer Konzentration von 1 mg/ml in Acetonitril gelöst und mit Phosphat-gepufferter Kochsalzlösung pH 7.2 im Volumenverhältnis 1:100 verdünnt, wobei eine Konzentration von jeweils 10 µg/ml erhalten wurde. Diese Lösungen wurden jeweils bei 37 °C im Dunkeln inkubiert und 20 µl-Aliquote wurden nach definierten Zeiten mittels der HPLC-Technik untersucht. Die Stabilitäten dieser Verbindungen sind in Fig. 1 graphisch dargestellt.
Verbindung 10 wurde, wie vorstehend beschrieben, unrersucht und mittels HPLC-Technik analysiert.
Verbindung 12 wurde analog zu Verbindung 10 hydrolysiert, wobei jedoch ein pH-Wert von 7,4 verwendet wurde.

[3] = 10 µg/ml in phosphate-buffered saline pH 7.2, 37 °C, dark, releases β-Rhodomycin-I directly and via an intermediate
[4] = 1 h incubation at 37°C, then washed, colonies counted after 7 days
[5] = continuous exposure in agar, 7 days at 37°C, not differentiated by possible hydrolysis products (footnote a)

Molecule	IC50 ([1]; L1210, 168 h, continuous exposure in agar, 7 days at 37°C, not differentiated by possible hydrolysis products (footnote a), read-out: IC₅₀-Werte gegenüber L1210-Zellen in vitro, Dauerinkubation) [µg/mL]	IC50 ([1]; L1210, 1 h incubation at 37°C, then washed, colonies counted after 7 days, read-out: IC₅₀-Werte gegenüber L1210-Zellen in vitro, 1h-Inkubation) [µg/mL]	Hydrolyse [2, 3]	IC₅₀-Werte gegenüber L1210-Zellen in vitro, 1h-Inkubation [1, 4]	IC₅₀-Werte gegenüber L1210-Zellen in vitro, Dauerinkubation [1, 5]	Hydrolyse ([2]; as for Verbindung 10 but pH 7,4, 37 °C)
COc1cccc2c1C(=O)c1c(O)c3c(c(O)c1C2=O)C[C@@](O)(C(=O)CO)C[C@@H]3O[C@H]1C[C@H](N)[C@H](O)[C@H](C)O1 [Adriamycin, reference compound]	0.02 (≈ 0.0368 µM)	0.04 (≈ 0.0736 µM)	–	–	–	–
CCC1(O)CC(OC2CC(N(C)C)C(OC(=O)c3ccc(N4C(=O)C=CC4=O)cc3OC(C)=O)C(C)O2)c2c(O)c3c(c(O)c2C1O)C(=O)c1cccc(O)c1C3=O [Verbindung 10, 7-O-[4′-O-(2-Acetoxy-4-maleimidobenzoyl)-α-L-rhodosaminyl]-β-rhodomycinon]	–	–	hydrolytisch zersetzt	–	–	–
CC[C@@]1(O)C[C@H](O[C@H]2C[C@H](N(C)C)[C@H](O[C@H]3C[C@@H]4O[C@H]5CC(=O)[C@H](C)O[C@H]5O[C@@H]4[C@H](C)O3)[C@H](C)O2)c2c(O)c3c(c(O)c2[C@H]1O[C@H]1C[C@H](N(C)C)[C@H](O)[C@H](C)O1)C(=O)c1cccc(O)c1C3=O [Cytorhodin-S, reference compound]	–	–	–	0,013 µg/ml	0,003 µg/ml	–
4˝-O-(4-Maleimidobenzoyl)-cytorhodin-S [Verbindung 12]	–	–	–	0,0095 µg/ml	0,0028 µg/ml	analoges Hydrolyseverhalten
CC[C@@]1(O)C[C@H](O[C@H]2C[C@H](N(C)C)[C@H](OC(=O)c3ccc(N4C(=O)C=CC4=O)cc3)[C@H](C)O2)c2c(O)c3c(c(O)c2[C@H]1O)C(=O)c1cccc(O)c1C3=O [Verbindung 8]	–	–	analoges Hydrolyseverhalten	0,5 µg/ml	0,11 µg/ml	–
CC[C@@]1(O)C[C@H](O[C@H]2C[C@H](N(C)C)[C@H](O)[C@H](C)O2)c2c(O)c3c(c(O)c2[C@H]1O)C(=O)c1cccc(O)c1C3=O [β-Rhodomycin-I, 7-O-(α-L-Rhodosaminyl)-β-rhodomycinon, reference compound]	–	–	–	0,05 µg/ml	0,022 µg/ml	–
CC[C@@]1(O)C[C@H](O[C@H]2C[C@H](N(C)C)[C@H](OC(=O)CCN3C(=O)C=CC3=O)[C@H](C)O2)c2c(O)c3c(c(O)c2[C@H]1O)C(=O)c1cccc(O)c1C3=O [Verbindung 11, 7-O-[4′-O-(3-Maleimidopropionyl)-α-L-rhodosaminyl]-βrhodomycinon]	–	–	analoges Hydrolyseverhalten	0,11 µg/ml	0,028 µg/ml	–
